Test results reported in US12043602B2, “Fendiline derivatives” (The Board of Regents of the University of Texas System, priority 2019, dated 2024).

Key:
mGFP-K-RASG12V = mGFP-K-RASG12V (Homo sapiens (Human), UniProt P01116, G12V); experiment: K-Ras mislocalization assay (confocal microscopy, Manders coefficient); assay type: cell-based; design: key to Emax: Manders coefficient: fraction of mCherry-CAAX co-localizing with GFP-K-Ras; details: for IC50 / Emax: MDCK cells; for IC50: 48 h treatment, read-out: IC50 (μM), KRASG12V mislocalization; for Emax: maximal effect, Manders coefficient, 48 h
Procedure: Madine Darby Canine Kidney epithelial cells (MDCK) stably co-expressing mGFP-tagged full length oncogenic mutant K-Ras (GFP—K-RASG12V) or mGFP-LactC2 (peptide probe for phosphatidylserine) and mCherry-tagged to the amino acids 179-189 of H-RasC181S, C184S (mCherry-CAAX, localizes primarily to endomembranes) were grown in DMEM-high glucose/sodium pyruvate/10% FBS. The medium was supplemented with 1× Penicillin/Streptomycin for fluorescence microscopy assays, to avoid any microbial contamination from the test compounds added. KLE and Hec50 cells were maintained in DMEM-F-12 medium supplemented with 10% FBS. Hec-1A and Hec-1B cells were grown in McCoy's 5a medium supplemented with 10% FBS. ESS-1 cells were grown in RPMI 1640 medium supplemented with 20% FBS. MPanc96 cells were grown in DMEM supplemented with 10% FBS, MiaPaCa-2 cells in DMEM supplemented with 10% FBS and 2.5% horse serum and all other cell lines were grown in RPMI 1640 supplemented with 10% FBS. All cancer cell media were supplemented with ×Penicillin/Streptomycin. All cell lines were grown at 37° C. with 5% CO2.
MDCK co-expressing GFP—K-RASG12V or LactC2 and mCherry-CAAX were grown on coverslips, treated with 0.1% vehicle (DMSO) or various concentrations of drugs for 48 h, and fixed with 4% paraformaldehyde. The coverslips were mounted in mowiol and imaged by confocal microscopy (Nikon A1) using a 60× objective. Using ImageJ software v1.42q, images were converted to 8-bit, and a threshold to a control pixel of each image was set. As a measure of K-Ras/LactC2 mislocalization, the fraction of mCherry-CAAX co-localizing with mGFP-K-RASG12V was calculated using a Manders coefficient plugin downloaded from Wright Cell Image Facility. The fraction of mCherry-CAAX co-localizing with mGFP-RASG12V (Mander's coefficient) is proportional to K-Ras mislocalization.

[1] = tested on: MDCK cells co-expressing GFP-K-RASG12V and mCherry-CAAX; experiment: Cytotoxicity in mislocalization screen (death of all cells in well); details: drug caused death of all cells in well at 30 μM

| IC50 (mGFP-K-RASG12V) [µM] | Emax (mGFP-K-RASG12V) | SMILES | Cytotoxic at 30 μM [1] | fold loss of potency to mislocalize KRAS (mGFP-K-RASG12V; in comparison with 7) [fold] |
| --- | --- | --- | --- | --- |
| 0.17 | 0.764 | OC[C@H](c1ccccc1)N(CC=C(c1ccccc1)c1ccccc1)CC=C(c1ccccc1)c1ccccc1 [AVA72, reference compound] | No | – |
| 3.65 | 0.605 | COc1ccc(CCN(CC=C(c2ccccc2)c2ccccc2)CC=C(c2ccccc2)c2ccccc2)cc1 [NY0220, N-(3,3-diphenylallyl)-N-(4-methoxyphenethyl)-3,3-diphenylprop-2-en-1-amine] | No | – |
| 0.25 | 0.587 | COc1ccc([C@@H](C)N(CC=C(c2ccccc2)c2ccccc2)C(C)=O)cc1 [NY0222, (R)-N-(3,3-diphenylallyl)-N-(1-(4-methoxyphenyl)ethyl)acetamide] | Yes | – |
| 0.64 | 0.622 | COc1ccc(NC(=O)N(CC=C(c2ccccc2)c2ccccc2)[C@H](C)c2ccc(OC)cc2)cc1 [NY0224, (R)-1-(3,3-diphenylallyl)-3-(4-methoxyphenyl)-1-(1-(4-methoxyphenyl)ethyl)urea] | No | – |
| 6.39 | 0.522 | COc1ccc([C@@H](C)N(CC=C(c2ccccc2)c2ccccc2)CC(=O)O)cc1 [NY0229, (R)-2-((3,3-diphenylallyl)(1-(4-methoxyphenyl)ethyl)amino)acetic acid] | No | – |
| 3.56 | 0.522 | COc1ccc([C@@H](C)N(CC=C(c2ccccc2)c2ccccc2)CC(=O)N2CCc3ccccc3C2)cc1 [NY0233, (R)-1-(3,4-dihydroisoquinolin-2(1H)-yl)-2-((3,3-diphenylallyl)(1-(4-methoxyphenyl)ethyl)amino)ethanone] | No | – |

Continued, compound first:

| SMILES | IC50 (mGFP-K-RASG12V) [µM] | Emax (mGFP-K-RASG12V) | Cytotoxic at 30 μM [1] | fold loss of potency to mislocalize KRAS (mGFP-K-RASG12V; in comparison with 7) [fold] |
| --- | --- | --- | --- | --- |
| C=CCN(CC=C(c1ccccc1)c1ccccc1)[C@H](C)c1ccc(OC)cc1 [NY0217, (R)-N-allyl-N-(1-(4-methoxyphenyl)ethyl)-3,3-diphenylprop-2-en-1-amine] | 13 | 0.47 | No | – |
| COc1ccc([C@@H](C)N(C)CC=C(c2ccccc2)c2ccccc2)cc1 [NY0218, (R)-N-(1-(4-methoxyphenyl)ethyl)-N-methyl-3,3-diphenylprop-2-en-1-amine] | 3.3 | 0.75 ± 0.01 | No | 7 |
| C(CN1CCc2ccccc2C1)=C(c1ccccc1)c1ccccc1 [NY0221, 2-(3,3-diphenylallyl)-1,2,3,4-tetrahydroisoquinoline] | 0.65 | 0.585 | No | – |
| COc1ccc([C@@H](C)N(CC=C(c2ccccc2)c2ccccc2)S(C)(=O)=O)cc1 [NY0223, (R)-N-(3,3-diphenylallyl)-N-(1-(4-methoxyphenyl)ethyl)methanesulfonamide] | 8.45 | 0.785 | No | – |
| COc1ccc([C@@H](C)N(CC=C(c2ccccc2)c2ccccc2)C(=O)Oc2ccccc2)cc1 [NY0225, (R)-phenyl (3,3-diphenylallyl)(1-(4-methoxyphenyl)ethyl)carbamate] | 0.43 | 0.626 | Yes | – |
| COC(=O)CN(CC=C(c1ccccc1)c1ccccc1)[C@H](C)c1ccc(OC)cc1 [NY0228, (R)-methyl 2-((3,3-diphenylallyl)(1-(4-methoxyphenyl)ethyl)amino)acetate] | – | 0.705 | No | – |
| COc1ccc([C@@H](C)N(CC=C(c2ccccc2)c2ccccc2)CC(=O)N2CCN(C)CC2)cc1 [NY0232, (R)-2-((3,3-diphenylallyl)(1-(4-methoxyphenyl)ethyl)amino)-1-(4-methylpiperazin-1-yl)ethanone] | 1.1 | 0.73 ± 0.02 | No | – |
| C#CCN(CC=C(c1ccccc1)c1ccccc1)[C@H](C)c1ccc(OC)cc1 [NY0234, (R)-N-(1-(4-methoxyphenyl)ethyl)-3,3-diphenyl-N-(prop-2-yn-1-yl)prop-2-en-1-amine] | 21.9 | 0.703 | No | – |
